According to ChEMBL document CHEMBL3352190, “New benzothieno[3,2-d]-1,2,3-triazines with antiproliferative activity: synthesis, spectroscopic studies, and biological activity” (2014):
The source made the active and inactive calls. The calls are words filed in the database; no cut-off is given here.

Columns and labels:
HeLa [1] = assay: Cytotoxicity against human HeLa cells assessed as reduction in cell viability by MTT assay; format: functional, cell-based; conditions: TDE = time-dependent effect
Calf thymus DNA [2] = assay: Binding affinity to calf thymus DNA assessed as DNA intercalation by viscosity study; format: nucleic-acid assay; conditions: Bos taurus
HeLa [3] = assay: Cytotoxicity against human HeLa cells assessed as reduction in cell viability after 24 to 48 hrs by MTT assay; format: functional
HeLa [4] = assay: Cytotoxicity against human HeLa cells assessed as reduction in cell viability after 24 hrs by MTT assay; format: functional
HeLa [5] = assay: Cytotoxicity against human HeLa cells assessed as reduction in cell viability after 48 hrs by MTT assay; format: functional
Calf thymus DNA [6] = assay: Binding affinity to calf thymus DNA assessed as change in CD spectrum of DNA by CD titration method; format: nucleic-acid assay; conditions: Bos taurus
Calf thymus DNA [7] = assay: Binding affinity to calf thymus DNA assessed by UV-vis spectroscopy; format: nucleic-acid assay; conditions: Bos taurus
Calf thymus DNA [8] = assay: Binding affinity to calf thymus DNA assessed as hypochromic effect by UV-vis spectroscopy; format: nucleic-acid assay; design: concentration or dose not given beside the values; conditions: Bos taurus
HeLa [9] = assay: Cytotoxicity against human HeLa cells assessed as reduction in plasma membrane integrity at 1 to 50 uM by LDH release assay; format: functional, cell-based
HeLa [10] = assay: Cell cycle arrest in human HeLa cells assessed as accumulation of cells at sub-G1 phase at 8.8 uM after 24 hrs by flow cytometry; format: functional, cell-based
HeLa [11] = assay: Cell cycle arrest in human HeLa cells at 4.4 uM after 24 hrs by flow cytometry; format: functional, cell-based
HeLa [12] = assay: Cell cycle arrest in human HeLa cells at 8.8 uM after 12 hrs by flow cytometry; format: functional, cell-based
HeLa [13] = assay: Cell cycle arrest in human HeLa cells assessed as supression of G2/M phase after 12 to 24 hrs by flow cytometry; format: functional, cell-based
HeLa [14] = assay: Cell cycle arrest in human HeLa cells assessed as accumulation of G0/G1 phase after 12 to 24 hrs by flow cytometry; format: functional, cell-based

Row | SMILES | Activity (Calf thymus DNA [2]) | Activity (Calf thymus DNA [6]) | Kb (Calf thymus DNA [7]) | Activity (Calf thymus DNA [8]) | Activity (HeLa [1]) | Activity (HeLa [3]) | GI50 (HeLa [4]) | GI50 (HeLa [5]) | GI50 (HeLa [3]) | Activity (HeLa [9]) | Activity (HeLa [10]) | Activity (HeLa [11]) | Activity (HeLa [12]) | Activity (HeLa [13]) | Activity (HeLa [14])
1 | CCOC(=O)c1sc2ccccc2c1/N=N/Nc1ccc(F)c(Cl)c1 | inactive |  |  |  | tde | Dose-dependent effect | 31.4 µM | 12.9 µM |  |  |  |  |  |  | 
2 | CCOC(=O)c1sc2ccccc2c1/N=N/Nc1ccc(OC)cc1 |  |  |  |  | tde | Dose-dependent effect | 49.1 µM | 17.4 µM |  |  |  |  |  |  | 
3 | CN(C)/N=N/c1[nH]cnc1C(N)=O [DACARBAZINE] |  |  |  |  |  |  |  |  | > 50 µM |  |  |  |  |  | 
4 | CCOC(=O)c1sc2ccccc2c1/N=N/Nc1ccccc1 | Active | Active | 9.87 ×10⁵ /M | 12% | tde | Dose-dependent effect | 49.3 µM | 26.1 µM |  |  |  |  |  |  | 
5 | CCOC(=O)c1sc2ccccc2c1/N=N/Nc1ccc(C)cc1 | inactive |  |  |  | tde | Dose-dependent effect | 42.1 µM | 18.3 µM |  |  |  |  |  |  | 
6 | Cn1nnc2c(C(N)=O)ncn2c1=O [TEMOZOLOMIDE] |  |  |  |  |  |  |  |  | > 50 µM |  |  |  |  |  | 

Now from value to compound, other results behind:

Row | Activity (Calf thymus DNA [2]) | Activity (Calf thymus DNA [6]) | Kb (Calf thymus DNA [7]) | Activity (Calf thymus DNA [8]) | SMILES | Activity (HeLa [1]) | Activity (HeLa [3]) | GI50 (HeLa [4]) | GI50 (HeLa [5]) | GI50 (HeLa [3]) | Activity (HeLa [9]) | Activity (HeLa [10]) | Activity (HeLa [11]) | Activity (HeLa [12]) | Activity (HeLa [13]) | Activity (HeLa [14])
7 | inactive |  |  |  | O=c1c2sc3ccccc3c2nnn1-c1ccc(F)c(Cl)c1 | tde | Dose-dependent effect | 6.35 µM | 2.45 µM |  | inactive |  |  |  |  | 
8 | Active | Active | 1.23 ×10⁵ /M | 25% | Cc1ccc(-n2nnc3c(sc4ccccc43)c2=O)cc1 | tde | Dose-dependent effect | 5.32 µM | 1.88 µM |  | inactive |  |  |  |  | 
9 | Active | inactive | 9.84 ×10⁵ /M | 29% | COc1cc(-n2nnc3c(sc4ccccc43)c2=O)cc(OC)c1OC | tde | Dose-dependent effect | 20.7 µM | 9.44 µM |  |  |  |  |  |  | 
10 | Active | inactive | 6.67 ×10⁵ /M | 85% | O=c1c2sc3ccccc3c2nnn1-c1ccccc1 | tde | Dose-dependent effect | 18.6 µM | 9.79 µM |  |  |  |  |  |  | 
11 | Active | Active | 9.72 ×10⁴ /M | 28% | COc1ccc(-n2nnc3c(sc4ccccc43)c2=O)cc1 | tde | Dose-dependent effect | 4.37 µM | 1.24 µM |  | inactive | Active | Active | Active | Dose-dependent effect | Dose-dependent effect
12 | Active | inactive | 4.14 ×10⁶ /M | 11% | CCOC(=O)c1sc2ccccc2c1/N=N/Nc1cc(OC)c(OC)c(OC)c1 | tde | Dose-dependent effect | 22.8 µM | 14.4 µM |  |  |  |  |  |  | 
